Laboratory results published in patent US12029800B2, “Composite particles including anionic polymer and cationic polymer or peptide, and method for producing composite particles” (POLA CHEMICAL INDUSTRIES, INC., priority 2016, dated 2024).

Test: Test Example 3: particle diameter of composite particles after adding PBS (imitating the inside of the living body)
Assay type: physicochemical
Settings: PBS 100% (the same environment as the inside of the skin), FIG. 1
Experimental: An aqueous solution including a composite particle of sodium hyaluronate and a cationic polymer that was each of a primary amine and a quaternary ammonium was prepared in a similar manner as in Test Example 1.
By adding a PBS buffer solution constituted of the ions that are universally found in the living body into an aqueous solution of the prepared composite particles, it was investigated how the composite particles under the environment imitating the inside environment of the living body behaved.
Specifically, PBS was added into an aqueous solution of the prepared composite particles, and the particle diameter of a composite particle in the aqueous solution was measured in a similar manner as in Test Example 2.

Substance	Particle diameter of the composite particle with sodium hyaluronate at addition amount of PBS 100%
Polylysine	particle diameter was not able to be almost measured
Protamine	particle diameter was not able to be almost measured
